# Reference: ChEMBL document CHEMBL3885881, “DrugMatrix”
# Species on record: Rattus norvegicus
# Assay: DrugMatrix - Regimen: Daily Repeat
# Type: toxicity, organism-based, Sprague-Dawley
# Parameters: regimen Daily Repeat, gender Male, age 6-8 weeks
# Conditions: in vivo, po, route oral GAVAGE, vehicle 100 % SALINE; for ABSOLUTE BASOPHIL / ABSOLUTE EOSINOPHIL / ABSOLUTE LYMPHOCYTE / ABSOLUTE MONOCYTE / ABSOLUTE SEGMENTED NEUTROPHIL / BASOPHIL / EOSINOPHIL / ERYTHROCYTE COUNT / HEMATOCRIT / HEMOGLOBIN / LEUKOCYTE COUNT / LYMPHOCYTE / MEAN CORPUSCULAR HEMOGLOBIN / MEAN CORPUSCULAR HEMOGLOBIN CONCENTRATION / MEAN CORPUSCULAR VOLUME / MONOCYTE / NEUTROPHIL / NUCLEATED RED BLOOD CELLS / PLATELET COUNT: tissue Blood; for ALANINE AMINOTRANSFERASE / ALBUMIN / ALKALINE PHOSPHATASE / ASPARTATE AMINOTRANSFERASE / BLOOD UREA NITROGEN / CARBON DIOXIDE / CHLORIDE / CHOLESTEROL / CREATINE PHOSPHOKINASE / CREATININE / GLUCOSE / LACTATE DEHYDROGENASE / LIPASE / PHOSPHORUS / POTASSIUM / SODIUM / TOTAL BILIRUBIN / TOTAL PROTEIN / URIC ACID: tissue Plasma
# [1] = 0 mg/kg, 72 h, dose level Control, time 3 day
# [2] = 0 mg/kg, 120 h, dose level Control, time 5 day
# [3] = […], 72 h, dose 2.3 mg/Kg, dose level Low, time 3 day
# [4] = […], 120 h, dose 2.3 mg/Kg, dose level Low, time 5 day
smiles,measurement,setting,value
CC(CN1c2ccccc2Sc2ccccc21)N(C)C (configuration not stated) [PROMETHAZINE],ABSOLUTE BASOPHIL,[1],0 CELLS/uL
same,ABSOLUTE EOSINOPHIL,[1],65.67 CELLS/uL
same,ABSOLUTE LYMPHOCYTE,[1],17283.5 CELLS/uL
same,ABSOLUTE MONOCYTE,[1],0 CELLS/uL
same,ABSOLUTE SEGMENTED NEUTROPHIL,[1],1284.17 CELLS/uL
same,BASOPHIL,[1],0%
same,EOSINOPHIL,[1],0.33%
same,ERYTHROCYTE COUNT,[1],5.46 x10E6/uL
same,HEMATOCRIT,[1],34.28%
same,HEMOGLOBIN,[1],13.78 G/DL
same,LEUKOCYTE COUNT,[1],18.63 x10E3/uL
same,LYMPHOCYTE,[1],92.67%
same,MEAN CORPUSCULAR HEMOGLOBIN,[1],25.3 pg
same,MEAN CORPUSCULAR HEMOGLOBIN CONCENTRATION,[1],40.22 G/DL
same,MEAN CORPUSCULAR VOLUME,[1],62.87 fL
same,MONOCYTE,[1],0%
same,NEUTROPHIL,[1],7%
same,NUCLEATED RED BLOOD CELLS,[1],0 /100WBC
same,PLATELET COUNT,[1],1244.83 x10E3/uL
same,ALANINE AMINOTRANSFERASE,[1],52.83 u/L
same,ALBUMIN,[1],4 G/DL
same,ALKALINE PHOSPHATASE,[1],327.67 u/L
same,ASPARTATE AMINOTRANSFERASE,[1],78.83 u/L
same,BLOOD UREA NITROGEN,[1],13.83 mg/dL
same,CARBON DIOXIDE,[1],26.67 mmol/L
same,CHLORIDE,[1],99.67 MEQ/L
same,CHOLESTEROL,[1],69 mg/dL
same,CREATINE PHOSPHOKINASE,[1],350.17 u/L
same,CREATININE,[1],0.21 mg/dL
same,GLUCOSE,[1],173.83 mg/dL
same,LACTATE DEHYDROGENASE,[1],168.33 u/L
same,LIPASE,[1],11 u/L
same,PHOSPHORUS,[1],12.7 mg/dL
same,POTASSIUM,[1],6.88 MEQ/L
same,SODIUM,[1],141.68 MEQ/L
same,TOTAL BILIRUBIN,[1],0.22 mg/dL
same,TOTAL PROTEIN,[1],6.02 G/DL
same,URIC ACID,[1],1.9 mg/dL
same,ABSOLUTE BASOPHIL,[2],0 CELLS/uL
same,ABSOLUTE EOSINOPHIL,[2],14.83 CELLS/uL
same,ABSOLUTE LYMPHOCYTE,[2],12880 CELLS/uL
same,ABSOLUTE MONOCYTE,[2],90.67 CELLS/uL
same,ABSOLUTE SEGMENTED NEUTROPHIL,[2],864.5 CELLS/uL
same,BASOPHIL,[2],0%
same,EOSINOPHIL,[2],0.17%
same,ERYTHROCYTE COUNT,[2],5.83 x10E6/uL
same,HEMATOCRIT,[2],35.87%
same,HEMOGLOBIN,[2],14 G/DL
same,LEUKOCYTE COUNT,[2],13.85 x10E3/uL
same,LYMPHOCYTE,[2],92.5%
same,MEAN CORPUSCULAR HEMOGLOBIN,[2],24.03 pg
same,MEAN CORPUSCULAR HEMOGLOBIN CONCENTRATION,[2],39.03 G/DL
same,MEAN CORPUSCULAR VOLUME,[2],61.53 fL
same,MONOCYTE,[2],0.67%
same,NEUTROPHIL,[2],6.67%
same,NUCLEATED RED BLOOD CELLS,[2],0 /100WBC
same,PLATELET COUNT,[2],1041.83 x10E3/uL
same,ALANINE AMINOTRANSFERASE,[2],56 u/L
same,ALBUMIN,[2],4.47 G/DL
same,ALKALINE PHOSPHATASE,[2],319 u/L
same,ASPARTATE AMINOTRANSFERASE,[2],89.17 u/L
same,BLOOD UREA NITROGEN,[2],15.2 mg/dL
same,CARBON DIOXIDE,[2],24 mmol/L
same,CHLORIDE,[2],104.4 MEQ/L
same,CHOLESTEROL,[2],69.5 mg/dL
same,CREATINE PHOSPHOKINASE,[2],295.83 u/L
same,CREATININE,[2],0.21 mg/dL
same,GLUCOSE,[2],124.33 mg/dL
same,LACTATE DEHYDROGENASE,[2],325.5 u/L
same,LIPASE,[2],14.67 u/L
same,PHOSPHORUS,[2],11.45 mg/dL
same,POTASSIUM,[2],6.74 MEQ/L
same,SODIUM,[2],151.4 MEQ/L
same,TOTAL BILIRUBIN,[2],0.23 mg/dL
same,TOTAL PROTEIN,[2],6.45 G/DL
same,URIC ACID,[2],1.18 mg/dL
same,ABSOLUTE BASOPHIL,[3],0 CELLS/uL
same,ABSOLUTE EOSINOPHIL,[3],137 CELLS/uL
same,ABSOLUTE LYMPHOCYTE,[3],14557.33 CELLS/uL
same,ABSOLUTE MONOCYTE,[3],165.33 CELLS/uL
same,ABSOLUTE SEGMENTED NEUTROPHIL,[3],1673.67 CELLS/uL
same,BASOPHIL,[3],0%
same,EOSINOPHIL,[3],1%
same,ERYTHROCYTE COUNT,[3],5.52 x10E6/uL
same,HEMATOCRIT,[3],34.93%
same,HEMOGLOBIN,[3],13.67 G/DL
same,LEUKOCYTE COUNT,[3],16.53 x10E3/uL
same,LYMPHOCYTE,[3],88.33%
same,MEAN CORPUSCULAR HEMOGLOBIN,[3],24.8 pg
same,MEAN CORPUSCULAR HEMOGLOBIN CONCENTRATION,[3],39.13 G/DL
same,MEAN CORPUSCULAR VOLUME,[3],63.3 fL
same,MONOCYTE,[3],1%
same,NEUTROPHIL,[3],9.67%
same,NUCLEATED RED BLOOD CELLS,[3],0 /100WBC
same,PLATELET COUNT,[3],1282.33 x10E3/uL
same,ALANINE AMINOTRANSFERASE,[3],48 u/L
same,ALBUMIN,[3],4.07 G/DL
same,ALKALINE PHOSPHATASE,[3],265 u/L
same,ASPARTATE AMINOTRANSFERASE,[3],76 u/L
same,BLOOD UREA NITROGEN,[3],13.67 mg/dL
same,CARBON DIOXIDE,[3],25.33 mmol/L
same,CHLORIDE,[3],102 MEQ/L
same,CHOLESTEROL,[3],62.67 mg/dL
same,CREATINE PHOSPHOKINASE,[3],306.33 u/L
same,CREATININE,[3],0.2 mg/dL
same,GLUCOSE,[3],164.67 mg/dL
same,LACTATE DEHYDROGENASE,[3],197.33 u/L
same,LIPASE,[3],10.33 u/L
same,PHOSPHORUS,[3],11.33 mg/dL
same,POTASSIUM,[3],6.26 MEQ/L
same,SODIUM,[3],142.7 MEQ/L
same,TOTAL BILIRUBIN,[3],0.2 mg/dL
same,TOTAL PROTEIN,[3],5.87 G/DL
same,URIC ACID,[3],1.63 mg/dL
same,ABSOLUTE BASOPHIL,[4],0 CELLS/uL
same,ABSOLUTE EOSINOPHIL,[4],47.67 CELLS/uL
same,ABSOLUTE LYMPHOCYTE,[4],14175.67 CELLS/uL
same,ABSOLUTE MONOCYTE,[4],210 CELLS/uL
same,ABSOLUTE SEGMENTED NEUTROPHIL,[4],1533.33 CELLS/uL
same,BASOPHIL,[4],0%
same,EOSINOPHIL,[4],0.33%
same,ERYTHROCYTE COUNT,[4],5.54 x10E6/uL
same,HEMATOCRIT,[4],35.6%
same,HEMOGLOBIN,[4],13.8 G/DL
same,LEUKOCYTE COUNT,[4],15.97 x10E3/uL
same,LYMPHOCYTE,[4],89%
same,MEAN CORPUSCULAR HEMOGLOBIN,[4],24.93 pg
same,MEAN CORPUSCULAR HEMOGLOBIN CONCENTRATION,[4],38.77 G/DL
same,MEAN CORPUSCULAR VOLUME,[4],64.27 fL
same,MONOCYTE,[4],1.33%
same,NEUTROPHIL,[4],9.33%
same,NUCLEATED RED BLOOD CELLS,[4],0 /100WBC
same,PLATELET COUNT,[4],1323 x10E3/uL
same,ALANINE AMINOTRANSFERASE,[4],48.67 u/L
same,ALBUMIN,[4],4.2 G/DL
same,ALKALINE PHOSPHATASE,[4],312 u/L
same,ASPARTATE AMINOTRANSFERASE,[4],76.33 u/L
same,BLOOD UREA NITROGEN,[4],12.67 mg/dL
same,CARBON DIOXIDE,[4],22 mmol/L
same,CHLORIDE,[4],103.67 MEQ/L
same,CHOLESTEROL,[4],67.67 mg/dL
same,CREATINE PHOSPHOKINASE,[4],212 u/L
same,CREATININE,[4],0.17 mg/dL
same,GLUCOSE,[4],187 mg/dL
same,LACTATE DEHYDROGENASE,[4],113 u/L
same,LIPASE,[4],9 u/L
same,PHOSPHORUS,[4],11.2 mg/dL
same,POTASSIUM,[4],6.01 MEQ/L
same,SODIUM,[4],144.6 MEQ/L
same,TOTAL BILIRUBIN,[4],0.17 mg/dL
same,TOTAL PROTEIN,[4],6.07 G/DL
same,URIC ACID,[4],2.13 mg/dL
